Source: publication PMC5838563, “Compounds producing an effective combinatorial regimen for disruption of HIV‐1 latency” (EMBO Molecular Medicine, 2017)

Legend:
[1] = tested on: SP1, NF‐κB p65, IκBα, total H3K9‐me3 and H3K9ac in Jurkat^Tat reporter cells; test: Western blot of SP1, NF‐κB p65, IκBα and global H3K9 modifications; type: cell-based
Protocol: Figure 6 Effect of PH02 on histone modification at HIV‐1 LTR and global histone modification • Chromatin immunoprecipitation assays were performed using Jurkat^Tat LTR‐DsRed, clone 11. The cells were treated for 24 h with PH02 and/or PEP005, and ChIP was performed using antibodies against histone H3K9‐me3 (left panel) and histone H3K9‐ac (right panel). The results are presented relative to ChIP with antihistone H3 antibodies. The results are determined from three biological replicates (n = 3). Statistical significance, as determined by ratio paired t‐test, is indicated as follows: ***P < 0.0005; ****P < 0.00005. The exact P‐values are indicated in Appendix Table S1. • Western blot analysis was performed using Jurkat^Tat LTR‐DsRed, clone 11, to detect the expression of SP1, NF‐κB p65, IκBα, total H3K9‐me3, and H3K9ac. The cells were treated for 24 h with PH02 and/or PEP005. Source data are available online for this figure.
Figure EV3 Effect of PH compounds on SP1, NF‐κB p65, and IκBα expression Jurkat^Tat LTR‐Luciferase cells were treated with a single concentration (3 μM) of each PH compound for the indicated time points. Whole‐cell protein extract was separated by SDS–PAGE, transferred to nitrocellulose membrane, and blotted with antibodies against SP1, NF‐κB p65, and IκBα. GAPDH was used as the loading control. Source data are available online for this figure.
5 × 10^6 luciferase reporter cells/Jurkat^Tat LTR‐DsRed, clone 11, were treated with the indicated concentration of the compounds. After treatment, the cells were lysed in RIPA buffer (50 mM Tris–HCl, pH 8.0, 150 mM NaCl, 1% NP‐40, 0.5% sodium deoxycholate, 0.1% SDS), supplemented with 1× protease inhibitor cocktail and 1 mM DTT, to collect the whole‐cell protein extract, which was further quantified using Bradford assay. A 30 μg equivalent of the protein extract was mixed with the 5× SDS–PAGE sample buffer and boiled for 5 min, and then, it was separated using 12% SDS–PAGE gel and transferred to a nitrocellulose membrane. […]

[2] = tested on: latent HIV‐1 provirus in resting CD4^+ T cells from HIV‐1‐infected patients; test: Supernatant HIV‐1 RNA from resting CD4+ T cells of patients (RT–qPCR); type: cell-based; conditions: 30 μM, 24 h
Protocol: For this analysis, we purified resting CD4^+ (rCD4^+) T lymphocytes from pools of patient samples by two‐step negative selection (Appendix Table S3). […] Purified rCD4^+ T cells were treated with 30 μM of each PH compound for 24 h, and RNA from the culture supernatants was analyzed by one‐step RT–qPCR, where results are presented as copy numbers of the virion/ml. […] Based on its capability for reactivating latent provirus at multiple chromosomal locations in cell lines, its negligible toxic effect, and that it produces the most robust reactivation of virus from patient samples, we focused our subsequent analysis on this compound (Table 1).
Figure 8 Effect of PH compounds on expression of HIV provirus in latently infected cells from patients Resting CD4^+ T cells purified from patient samples (n = 18, Appendix Table S3) were treated with 30 μM of each PH compound for 24 h, and HIV‐1 RNA was measured in culture supernatants. Results are presented as HIV virions/ml (mean ± SE). LOD indicates the limit of detection, 100 copies/ml culture supernatant. TEXT PRINTED IN THE PICTURE: PMA: Supernatant HIV-1 mRNA (Copies/ml): 308929.80 (50 nM) | PH01: Supernatant HIV-1 mRNA (Copies/ml): 5348.04 (Single Concentration (30μM)) | PH02: Supernatant HIV-1 mRNA (Copies/ml): 17624.53 (Single Concentration (30μM)) | PH03: Supernatant HIV-1 mRNA (Copies/ml): 4714.11 (Single Concentration (30μM)) | PH04: Supernatant HIV-1 mRNA (Copies/ml): 7134.68 (Single Concentration (30μM)) | PH05: Supernatant HIV-1 mRNA (Copies/ml): 587.19 (Single Concentration (30μM))
HIV‐1 RNA was measured from 1 × 10^6 resting CD4^+ T lymphocytes treated with 30 μM of each compound. Extracellular RNA was isolated using the ZR Viral RNA Kit (Zymo Research) and total cellular mRNA using the RNeasy MinElute cleanup kit (Qiagen). HIV‐1 RNA concentrations were assayed in one‐step RT–qPCRs using the iTaq™ universal SYBR Green one‐step kit (BIO‐RAD) with the HIV‐1 LTR‐specific primers, AGCCGCCTAGCATTTCATC and […]. RNA copy number was calculated using a standard curve generated from titrated infections with RGH‐PGK virus (Dahabieh et al, 2013). Reproducibility of RT–qPCR analysis was confirmed using a second set of primers within HIV‐1 p24 Gag, AGCAGCCATGCAAATGTTA, […]. HIV‐1 RNA determinations were normalized to GAPDH RNA measured using the primers […] and […].

[3] = tested on: IL‐2 production and CD69 in primary cells; parameters: method as in previous results (reference not given); conditions: 10 nM PEP005, primary cells; ref previous results (reference not given); cited from earlier work
[4] = Jurkat^Tat LTR‐DsRed clone 11, 24 h

Structure (SMILES) | expression of NF‐κB p65 and SP1 [1, 4] | global acetylation or methylation of lysine 9 on H3 [1, 4] | viral latency‐reversing activity compared to PMA [2] | Supernatant HIV-1 mRNA ([2]; LOD 100 copies/ml) [Copies/ml] | IκBα level ([1]; Jurkat^Tat LTR‐DsRed clone 11, 24‐h treatment, alone or with PH02) | CD69 [3] | IL‐2 production [3]
CC(=O)Oc1ccccc1N(C=C1Sc2ccccc2C1=O)C(C)=O [PH02, 2‐{acetyl[(3‐oxo‐1‐benzothien‐2(3H)‐ylidene)methyl]amino}phenyl acetate] | mostly unaffected | do not observe a significant effect | consistently produced the strongest effect | 17624.53 | – | – | –
C/C=C(/C)C(=O)O[C@H]1C(C)=C[C@]23C(=O)[C@@H](C=C(CO)[C@@H](O)[C@]12O)[C@H]1[C@@H](C[C@H]3C)C1(C)C [PEP005, ingenol‐3‐angelate, reference compound] | – | – | – | – | causes loss of IκBα | does induce upregulation of CD69 | does not cause
